Experimental data reported in patent US20030104507A1, “Method for detection of ATP” (priority 2001, published 2003).

Tested on: ATPase activity endogenous to L929 cell lysate
Assay: Detergent inhibition of ATPase endogenous to L929 cell lysate (ATP remaining by luciferase luminescence, 22° C.)
Type: biochemical
Set-up: key to Relative ATPase Activity, slope det/slope lysate: slope with detergent / slope without; ≥1.0 = 100% activity, 0.5 = 50%
Details: for concentrations which resulted in a 25% or greater decrease in the relative ATPase activity: compared to reactions in the absence of detergent
Procedure, shortened: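 L929 lysate (1.5×10^5 cells/ml, four freeze–thaw cycles) held with detergent at final 1.0, 0.5, 0.1 or 0.05% at 22° C; remaining ATP read over time with luciferase-luciferin reagent (100 μM luciferin, 10 mM MgSO4, pH 7.5). Relative ATPase activity = slope of log % ATP remaining vs time with detergent ÷ slope for lysate-only control.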

[1] = Example 2, 0.002% detergent, 5 min
[2] = Example 2, 0.002% detergent, 75 min
[3] = Example 2, 0.002% detergent, 169 min
[4] = Example 2, 0.002% detergent, 222 min
[5] = Example 2, 0.002% detergent, 260 min
[6] = Example 2, 0.01% detergent, 5 min
[7] = Example 2, 0.01% detergent, 75 min
[8] = Example 2, 0.01% detergent, 169 min
[9] = Example 2, 0.01% detergent, 222 min
[10] = Example 2, 0.01% detergent, 260 min
[11] = Example 2, 0.02% detergent, 5 min
[12] = Example 2, 0.02% detergent, 75 min
[13] = Example 2, 0.02% detergent, 169 min
[14] = Example 2, 0.02% detergent, 222 min
[15] = Example 2, 0.02% detergent, 260 min

In the case of CCCCCCCCCCCCOS(=O)(=O)[O-].[Na+] [SDS, Sodium dodecyl sulfate], the “Relative ATPase Activity, slope det/slope lysate” value (0.002 percent detergent) is reported as 1.010, the “Slope (log percent ATP remaining vs time in minutes)” value (0.002 percent detergent) is reported as −0.0064 and the “Relative ATPase Activity, slope det/slope lysate” value (0.01 percent detergent) is reported as 0.702. For the same compound, the “Slope (log percent ATP remaining vs time in minutes)” value (0.01 percent detergent) was −0.00385, the “Average Relative Light Unit Values” (0.05% detergent, 5 min) was 1181.17 rlu and the “Percent ATP Remaining” value (0.05% detergent, 5 min) was 100%. The “Average Relative Light Unit Values” (0.05% detergent, 75 min) was 1060.03 rlu, the “Percent ATP Remaining” value (0.05% detergent, 75 min) was 89.7% and the “Average Relative Light Unit Values” (0.05% detergent, 169 min) was 949.7 rlu. For the same compound, the “Percent ATP Remaining” value (0.05% detergent, 169 min) was 80.4%, the “Average Relative Light Unit Values” (0.05% detergent, 222 min) was 921.86 rlu and the “Percent ATP Remaining” value (0.05% detergent, 222 min) was 78.0%. For the same compound, the “Average Relative Light Unit Values” (0.05% detergent, 260 min) was 803.0 rlu, the “Percent ATP Remaining” value (0.05% detergent, 260 min) was 68.0% and the “Relative ATPase Activity, slope det/slope lysate” value (0.05 percent detergent) was 0.105. The “Slope (log percent ATP remaining vs time in minutes)” value (0.05 percent detergent) was −0.0006, the “Average Relative Light Unit Values” (0.1% detergent, 5 min) was 0.31 rlu and the “Average Relative Light Unit Values” (0.1% detergent, 75 min) was 0.18 rlu. The “Average Relative Light Unit Values” (0.1% detergent, 169 min) was 0.21 rlu, the “Average Relative Light Unit Values” (0.1% detergent, 222 min) was 0.26 rlu and the “Average Relative Light Unit Values” (0.1% detergent, 260 min) was 0.34 rlu. The “Average Relative Light Unit Values” (0.5% detergent, 5 min) was 0.00 rlu, the “Average Relative Light Unit Values” (0.5% detergent, 75 min) was 0.00 rlu and the “Average Relative Light Unit Values” (0.5% detergent, 169 min) was 0.02 rlu. For the same compound, the “Average Relative Light Unit Values” (0.5% detergent, 222 min) was 0.00 rlu, the “Average Relative Light Unit Values” (0.5% detergent, 260 min) was 0.00 rlu and the “Average Relative Light Unit Values” (1.0% detergent, 5 min) was 0.01 rlu. The “Average Relative Light Unit Values” (1.0% detergent, 75 min) was 0.00 rlu, the “Average Relative Light Unit Values” (1.0% detergent, 169 min) was 0.01 rlu and the “Average Relative Light Unit Values” (1.0% detergent, 222 min) was 0.00 rlu. For the same compound, the “Average Relative Light Unit Values” (1.0% detergent, 260 min) was 0.01 rlu, the “Average Relative Light Unit Values” [1] was 5773.39 rlu and the “Percent ATP Remaining” value [1] was 100.00%. For the same compound, the “Average Relative Light Unit Values” [2] was 1574.34 rlu, the “Percent ATP Remaining” value [2] was 27.27% and the “Average Relative Light Unit Values” [3] was 278.67 rlu. For the same compound, the “Percent ATP Remaining” value [3] was 4.83%, the “Average Relative Light Unit Values” [4] was 236.28 rlu and the “Percent ATP Remaining” value [4] was 4.09%. For the same compound, the “Average Relative Light Unit Values” [5] was 128.58 rlu, the “Percent ATP Remaining” value [5] was 2.23% and the “Average Relative Light Unit Values” [6] was 13116.20 rlu. The “Percent ATP Remaining” value [6] was 100.00%, the “Average Relative Light Unit Values” [7] was 10753.03 rlu and the “Percent ATP Remaining” value [7] was 48.62%. For the same compound, the “Average Relative Light Unit Values” [8] was 12051.63 rlu, the “Percent ATP Remaining” value [8] was 25.80% and the “Average Relative Light Unit Values” [9] was 11822.03 rlu. The “Percent ATP Remaining” value [9] was 14.20%, the “Average Relative Light Unit Values” [10] was 11900.73 rlu and the “Percent ATP Remaining” value [10] was 8.79%. The “times more ATP present in the sample after four hours when the detergent was present than when it was absent” value (SDS 0.05%, deoxycholate 0.5% and 0.1%) was “about three to about twenty” and the “concentrations which resulted in a 25% or greater decrease in the relative ATPase activity” value was at least 0.01%.

For CCCCCCCCCCCC[N+](C)(C)CCCS(=O)(=O)[O-] [Sulfobetaine 3-10, N-Dodecyl-N,N-dimethyl-3-ammonio-1-propanesulfonate], the “Relative ATPase Activity, slope det/slope lysate” value (0.02 percent detergent) was 1.009, the “Slope (log percent ATP remaining vs time in minutes)” value (0.02 percent detergent) was −0.0064 and the “Average Relative Light Unit Values” (0.05% detergent, 5 min) was 6247.31 rlu. The “Percent ATP Remaining” value (0.05% detergent, 5 min) was 100%, the “Average Relative Light Unit Values” (0.05% detergent, 75 min) was 2270.13 rlu and the “Percent ATP Remaining” value (0.05% detergent, 75 min) was 36.3%. For the same compound, the “Average Relative Light Unit Values” (0.05% detergent, 169 min) was 1053.56 rlu, the “Percent ATP Remaining” value (0.05% detergent, 169 min) was 16.9% and the “Average Relative Light Unit Values” (0.05% detergent, 222 min) was 465.03 rlu. The “Percent ATP Remaining” value (0.05% detergent, 222 min) was 7.4%, the “Average Relative Light Unit Values” (0.05% detergent, 260 min) was 233.19 rlu and the “Percent ATP Remaining” value (0.05% detergent, 260 min) was 3.7%. The “Relative ATPase Activity, slope det/slope lysate” value (0.05 percent detergent) was 1.077, the “Slope (log percent ATP remaining vs time in minutes)” value (0.05 percent detergent) was −0.0057 and the “Average Relative Light Unit Values” (0.1% detergent, 5 min) was 6506.61 rlu. For the same compound, the “Percent ATP Remaining” value (0.1% detergent, 5 min) was 100%, the “Average Relative Light Unit Values” (0.1% detergent, 75 min) was 2367.27 rlu and the “Percent ATP Remaining” value (0.1% detergent, 75 min) was 36.4%. The “Average Relative Light Unit Values” (0.1% detergent, 169 min) was 1100.37 rlu, the “Percent ATP Remaining” value (0.1% detergent, 169 min) was 16.9% and the “Average Relative Light Unit Values” (0.1% detergent, 222 min) was 446.29 rlu. The “Percent ATP Remaining” value (0.1% detergent, 222 min) was 6.9%, the “Average Relative Light Unit Values” (0.1% detergent, 260 min) was 222.22 rlu and the “Percent ATP Remaining” value (0.1% detergent, 260 min) was 3.4%. The “Relative ATPase Activity, slope det/slope lysate” value (0.10 percent detergent) was 1.109, the “Slope (log percent ATP remaining vs time in minutes)” value (0.10 percent detergent) was −0.0058 and the “Average Relative Light Unit Values” (0.5% detergent, 5 min) was 6565.98 rlu. For the same compound, the “Percent ATP Remaining” value (0.5% detergent, 5 min) was 100%, the “Average Relative Light Unit Values” (0.5% detergent, 75 min) was 2405.95 rlu and the “Percent ATP Remaining” value (0.5% detergent, 75 min) was 36.6%. The “Average Relative Light Unit Values” (0.5% detergent, 169 min) was 1211.13 rlu, the “Percent ATP Remaining” value (0.5% detergent, 169 min) was 18.4% and the “Average Relative Light Unit Values” (0.5% detergent, 222 min) was 609.75 rlu. For the same compound, the “Percent ATP Remaining” value (0.5% detergent, 222 min) was 9.3%, the “Average Relative Light Unit Values” (0.5% detergent, 260 min) was 391.64 rlu and the “Percent ATP Remaining” value (0.5% detergent, 260 min) was 6.0%. For the same compound, the “Relative ATPase Activity, slope det/slope lysate” value (0.50 percent detergent) was 0.921, the “Slope (log percent ATP remaining vs time in minutes)” value (0.50 percent detergent) was −0.0049 and the “Average Relative Light Unit Values” (1.0% detergent, 5 min) was 7861.36 rlu. The “Percent ATP Remaining” value (1.0% detergent, 5 min) was 100%, the “Average Relative Light Unit Values” (1.0% detergent, 75 min) was 5703.51 rlu and the “Percent ATP Remaining” value (1.0% detergent, 75 min) was 72.6%. The “Average Relative Light Unit Values” (1.0% detergent, 169 min) was 4318.46 rlu, the “Percent ATP Remaining” value (1.0% detergent, 169 min) was 54.9% and the “Average Relative Light Unit Values” (1.0% detergent, 222 min) was 3075.12 rlu. For the same compound, the “Percent ATP Remaining” value (1.0% detergent, 222 min) was 39.1%, the “Average Relative Light Unit Values” (1.0% detergent, 260 min) was 2193.02 rlu and the “Percent ATP Remaining” value (1.0% detergent, 260 min) was 27.9%. For the same compound, the “Relative ATPase Activity, slope det/slope lysate” value (1.00 percent detergent) was 0.417, the “Slope (log percent ATP remaining vs time in minutes)” value (1.00 percent detergent) was −0.0022 and the “Average Relative Light Unit Values” [11] was 6120.5 rlu. The “Percent ATP Remaining” value [11] was 100.00%, the “Average Relative Light Unit Values” [12] was 1622.61 rlu and the “Percent ATP Remaining” value [12] was 26.51%. The “Average Relative Light Unit Values” [13] was 291.09 rlu, the “Percent ATP Remaining” value [13] was 4.76% and the “Average Relative Light Unit Values” [14] was 245.55 rlu. For the same compound, the “Percent ATP Remaining” value [14] was 4.01%, the “Average Relative Light Unit Values” [15] was 136.43 rlu and the “Percent ATP Remaining” value [15] was 2.23%. For the same compound, the “concentrations which resulted in a 25% or greater decrease in the relative ATPase activity” value was at least 1%.
